Legend:
[1] = tested on: panel of kinases (402); assay: larger panel of kinases (402), competition binding, whole panel; settings: 1 μM; for number of kinases out of 31 with more than 50% residual activity: 31 of the 46 predicted kinases
Method: (§1) Two representative library members (1afh and 1bgi) were then evaluated in a larger panel of kinases (402) using the technology described by Lockhart et al. (M. A. Fabian, et al., Nat. Biotechnol. 2005, 23, 329-336; M. W. Karaman, et al., Nat. Biotechnol. 2008, 26, 127-132). In this panel, 31 kinases out of the 46 kinases bioinformatically identified by Santi and coworkers are present along with numerous other kinases bearing a cysteine residue at other positions within the ATP-binding pocket (J. Zhang, P. L. Yang, N. S. Gray, Nat. Rev. Cancer 2009, 9, 28-39).
(§2) The selectivity profile was measure using the KinomeScan™ technology (http://www.kinomescan.com/) based on active-site dependent competition binding assay (Karaman, M. W., et al. (2008) Nat. Biotechnol. 26, 127-32; Fabian, M. A., et al. (2005) Nat. Biotechnol. 23, 329-36). Compounds 3 and 5 were profiled against a panel of 50 kinases including 42 kinases from the group of 48 kinases predicted by Santi et al. (Schirmer, A., et al. (2006) Proc. Natl. Acad. Sci. USA 103, 4234-9) to be targeted by hypothemycin and 5 mutants of FLT3 as well as 3 mutants of KIT. Both compounds were assayed at 1 μM. The results are expressed as a percentage of signal between a negative (DMSO) and positive (know binder) control [(test compound−positive control)/([…])×100].

[2] = biological target: T1, Flt1 (Homo sapiens, UniProt P17948); assay: panel of 402 kinases: Flt1; type: binding
T1 construct: purchased KinomeScan
Method: as §1, §2

[3] = biological target: T2, Flt3 (Homo sapiens, UniProt P36888); assay: panel of 402 kinases: Flt3; type: binding; settings: read-out: residual activity relatively to control
T2 construct: purchased KinomeScan
Method: as §1, §2

[4] = biological target: T3, GAK (Homo sapiens, UniProt O14976); assay: panel of 402 kinases: GAK; type: binding; settings: read-out: residual activity relatively to control
T3 construct: purchased KinomeScan
Method: as §1, §2

[5] = biological target: KIT (Homo sapiens, UniProt P10721); assay: panel of 402 kinases: KIT; type: binding; settings: read-out: residual activity relatively to control
Method: as §1, §2

[6] = biological target: MEK1 (Homo sapiens, UniProt Q02750); assay: panel of 402 kinases: MEK1; type: binding; settings: read-out: residual activity relatively to control
Method: as §1, §2

[7] = biological target: T4, MEK2 (Homo sapiens, UniProt P36507); assay: panel of 402 kinases: MEK2; type: binding; settings: read-out: residual activity relatively to control
T4 construct: purchased KinomeScan
Method: as §1, §2

[8] = biological target: T5, MKNK1 (Homo sapiens, UniProt Q9BUB5); assay: panel of 402 kinases: MKNK1; type: binding; settings: read-out: residual activity relatively to control
T5 construct: purchased KinomeScan
Method: as §1, §2

[9] = biological target: T6, MKNK2 (Homo sapiens, UniProt Q9HBH9); assay: panel of 402 kinases: MKNK2; type: binding; settings: read-out: residual activity relatively to control
T6 construct: purchased KinomeScan
Method: as §1, §2

[10] = biological target: T7, PDGFRα (Homo sapiens, UniProt P16234); assay: panel of 402 kinases: PDGFRα; type: binding; settings: read-out: residual activity relatively to control
T7 construct: purchased KinomeScan
Method: as §1, §2

[11] = biological target: T8, PDGFRβ (Homo sapiens, UniProt P09619); assay: panel of 402 kinases: PDGFRβ; type: binding
T8 construct: purchased KinomeScan
Method: as §1, §2

[12] = biological target: T9, TAK1 (Homo sapiens, UniProt O43318); assay: panel of 402 kinases: TAK1; type: binding; settings: read-out: residual activity relatively to control
T9 construct: purchased KinomeScan
Method: as §1, §2

[13] = biological target: T10, TGFR2 (Homo sapiens, UniProt P37173); assay: panel of 402 kinases: TGFR2; type: binding; settings: read-out: residual activity relatively to control
T10 construct: purchased KinomeScan
Method: as §1, §2

[14] = biological target: T11, CDKL5 (Homo sapiens, UniProt O76039); assay: panel of 402 kinases: CDKL5; type: binding; settings: 1 μM
T11 construct: purchased KinomeScan
Method: as §1, §2

[15] = biological target: T12, ERK1 (Homo sapiens, UniProt P27361); assay: panel of 402 kinases: ERK1; type: binding; settings: 1 μM
T12 construct: purchased KinomeScan
Method: as §1, §2

[16] = biological target: GSK3β (Homo sapiens, UniProt P49841); assay: panel of 402 kinases: GSK3β; type: binding; settings: 1 μM
Method: as §1, §2

[17] = biological target: T13, NIK (Homo sapiens, UniProt Q99558); assay: panel of 402 kinases: NIK; type: binding; settings: 1 μM
T13 construct: purchased KinomeScan
Method: as §1, §2

[18] = biological target: T14, NLK (Homo sapiens, UniProt Q9UBE8); assay: panel of 402 kinases: NLK; type: binding; settings: 1 μM
T14 construct: purchased KinomeScan
Method: as §1, §2

[19] = biological target: T15, PRP4 (Homo sapiens, UniProt Q13523); assay: panel of 402 kinases: PRP4; type: binding; settings: 1 μM
T15 construct: purchased KinomeScan
Method: as §1, §2

[20] = biological target: Flt3 D835Y (Homo sapiens, UniProt P36888, D835Y); assay: kinase mutants: Flt3 D835Y; type: binding; settings: gain of function mutation
Method: as §1
(§3) The two compounds were also evaluated against a series of mutations of Flt3 and KIT. It is known that several mutation in Flt3 lead to a gain of function or constitutive activity.

[21] = biological target: Flt3 K663Q (Homo sapiens, UniProt P36888, K663Q); assay: kinase mutants: Flt3 K663Q; type: binding; settings: gain of function mutation
Method: as §1, §3

[22] = tested on: Flt3 N841L; assay: kinase mutants: Flt3 N841L; type: binding; settings: gain of function mutation
Method: as §1, §3

[23] = biological target: KIT D816V (Homo sapiens, UniProt P10721, D816V); assay: kinase mutants: KIT D816V; type: binding; settings: gain of function mutation
Method: as §1, §3

[24] = biological target: KIT L576P (Homo sapiens, UniProt P10721, L576P); assay: kinase mutants: KIT L576P; type: binding; settings: gain of function mutation
Method: as §1, §3

[25] = biological target: KIT V559D (Homo sapiens, UniProt P10721, V559D); assay: kinase mutants: KIT V559D; type: binding; settings: gain of function mutation
Method: as §1, §3

[26] = biological target: KIT V559D, T670I (Homo sapiens, UniProt P10721, T670I/V559D); assay: kinase mutants: KIT V559D, T670I; type: binding; settings: dual mutation conferring resistance to imatinib
Method: as §1, §3

[27] = biological target: KIT V559D, V654A (Homo sapiens, UniProt P10721, V559D/V654A); assay: kinase mutants: KIT V559D, V654A; type: binding; settings: dual mutation conferring resistance to imatinib
Method: as §1, §3

[28] = biological target: T16, MEK4 (Homo sapiens, UniProt P45985); assay: panel of 402 kinases: MEK4; type: binding; settings: read-out: residual activity relatively to control
T16 construct: purchased KinomeScan
Method: as §1, §2

[29] = in vivo; cited from earlier work
[30] = read-out: residual activity relatively to control

Sequence of KIT L576P (P10721 26-976 L576P): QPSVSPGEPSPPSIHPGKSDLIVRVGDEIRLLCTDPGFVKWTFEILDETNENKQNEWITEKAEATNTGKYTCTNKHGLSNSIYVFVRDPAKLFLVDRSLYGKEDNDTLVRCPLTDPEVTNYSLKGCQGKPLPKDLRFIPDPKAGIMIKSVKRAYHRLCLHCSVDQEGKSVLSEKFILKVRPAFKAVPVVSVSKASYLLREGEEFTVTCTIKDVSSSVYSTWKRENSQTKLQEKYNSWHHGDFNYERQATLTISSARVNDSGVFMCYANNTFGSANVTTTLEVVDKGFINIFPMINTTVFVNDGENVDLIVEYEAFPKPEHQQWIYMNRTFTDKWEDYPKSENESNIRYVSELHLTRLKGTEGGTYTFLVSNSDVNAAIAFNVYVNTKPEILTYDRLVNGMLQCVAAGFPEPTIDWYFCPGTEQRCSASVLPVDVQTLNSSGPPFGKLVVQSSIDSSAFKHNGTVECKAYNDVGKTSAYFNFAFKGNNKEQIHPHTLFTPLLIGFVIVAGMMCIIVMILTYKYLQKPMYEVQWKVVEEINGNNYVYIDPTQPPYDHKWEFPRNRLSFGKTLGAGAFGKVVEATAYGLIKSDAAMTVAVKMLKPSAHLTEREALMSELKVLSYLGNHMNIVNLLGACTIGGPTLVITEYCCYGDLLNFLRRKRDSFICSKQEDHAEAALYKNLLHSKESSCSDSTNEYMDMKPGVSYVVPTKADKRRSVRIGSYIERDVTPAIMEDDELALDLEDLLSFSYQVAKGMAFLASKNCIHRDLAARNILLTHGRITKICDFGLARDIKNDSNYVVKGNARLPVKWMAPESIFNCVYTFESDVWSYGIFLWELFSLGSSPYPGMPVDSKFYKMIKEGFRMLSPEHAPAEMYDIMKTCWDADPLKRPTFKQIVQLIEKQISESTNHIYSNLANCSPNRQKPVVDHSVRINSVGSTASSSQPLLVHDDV
T1 sequence (P17948 27-1338): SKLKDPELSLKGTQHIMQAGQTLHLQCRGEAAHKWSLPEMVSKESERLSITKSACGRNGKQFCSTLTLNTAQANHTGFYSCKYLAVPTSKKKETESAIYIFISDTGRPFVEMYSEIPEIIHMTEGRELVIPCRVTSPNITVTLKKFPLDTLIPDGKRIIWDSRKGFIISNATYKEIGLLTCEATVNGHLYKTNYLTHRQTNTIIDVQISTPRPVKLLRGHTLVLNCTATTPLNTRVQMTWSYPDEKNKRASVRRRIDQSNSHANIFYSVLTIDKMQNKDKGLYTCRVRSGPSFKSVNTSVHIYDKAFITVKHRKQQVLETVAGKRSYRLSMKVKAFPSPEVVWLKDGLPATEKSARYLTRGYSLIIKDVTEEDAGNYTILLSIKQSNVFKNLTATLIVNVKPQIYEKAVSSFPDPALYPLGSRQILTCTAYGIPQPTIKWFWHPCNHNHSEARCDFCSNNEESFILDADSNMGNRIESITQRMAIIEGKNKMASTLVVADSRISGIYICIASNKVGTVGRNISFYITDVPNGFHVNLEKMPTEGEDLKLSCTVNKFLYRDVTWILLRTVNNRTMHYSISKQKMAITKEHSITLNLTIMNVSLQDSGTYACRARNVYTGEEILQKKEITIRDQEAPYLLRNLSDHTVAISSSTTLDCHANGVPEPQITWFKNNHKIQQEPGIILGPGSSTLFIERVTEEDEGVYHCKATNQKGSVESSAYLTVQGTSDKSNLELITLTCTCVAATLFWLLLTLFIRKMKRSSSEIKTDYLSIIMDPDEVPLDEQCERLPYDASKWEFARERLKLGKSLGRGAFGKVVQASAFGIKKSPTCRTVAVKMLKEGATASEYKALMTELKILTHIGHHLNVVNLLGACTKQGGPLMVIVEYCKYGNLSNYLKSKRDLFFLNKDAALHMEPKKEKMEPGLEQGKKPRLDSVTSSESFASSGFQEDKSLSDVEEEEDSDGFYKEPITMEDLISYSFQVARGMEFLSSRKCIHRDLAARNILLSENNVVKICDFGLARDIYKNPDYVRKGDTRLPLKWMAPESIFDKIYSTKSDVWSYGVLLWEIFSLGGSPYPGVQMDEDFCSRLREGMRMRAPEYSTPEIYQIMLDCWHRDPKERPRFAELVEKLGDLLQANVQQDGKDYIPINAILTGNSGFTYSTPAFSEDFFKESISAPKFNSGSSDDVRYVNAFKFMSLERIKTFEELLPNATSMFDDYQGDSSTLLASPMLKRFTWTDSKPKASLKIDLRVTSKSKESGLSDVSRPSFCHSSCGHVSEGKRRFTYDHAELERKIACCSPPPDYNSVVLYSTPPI
Sequence of KIT V559D, T670I (P10721 26-976 V559D/T670I): as the sequence (P10721 26-976 L576P) above, with V534D, P551L, T645I counted along it
T8 sequence (P09619 33-1106): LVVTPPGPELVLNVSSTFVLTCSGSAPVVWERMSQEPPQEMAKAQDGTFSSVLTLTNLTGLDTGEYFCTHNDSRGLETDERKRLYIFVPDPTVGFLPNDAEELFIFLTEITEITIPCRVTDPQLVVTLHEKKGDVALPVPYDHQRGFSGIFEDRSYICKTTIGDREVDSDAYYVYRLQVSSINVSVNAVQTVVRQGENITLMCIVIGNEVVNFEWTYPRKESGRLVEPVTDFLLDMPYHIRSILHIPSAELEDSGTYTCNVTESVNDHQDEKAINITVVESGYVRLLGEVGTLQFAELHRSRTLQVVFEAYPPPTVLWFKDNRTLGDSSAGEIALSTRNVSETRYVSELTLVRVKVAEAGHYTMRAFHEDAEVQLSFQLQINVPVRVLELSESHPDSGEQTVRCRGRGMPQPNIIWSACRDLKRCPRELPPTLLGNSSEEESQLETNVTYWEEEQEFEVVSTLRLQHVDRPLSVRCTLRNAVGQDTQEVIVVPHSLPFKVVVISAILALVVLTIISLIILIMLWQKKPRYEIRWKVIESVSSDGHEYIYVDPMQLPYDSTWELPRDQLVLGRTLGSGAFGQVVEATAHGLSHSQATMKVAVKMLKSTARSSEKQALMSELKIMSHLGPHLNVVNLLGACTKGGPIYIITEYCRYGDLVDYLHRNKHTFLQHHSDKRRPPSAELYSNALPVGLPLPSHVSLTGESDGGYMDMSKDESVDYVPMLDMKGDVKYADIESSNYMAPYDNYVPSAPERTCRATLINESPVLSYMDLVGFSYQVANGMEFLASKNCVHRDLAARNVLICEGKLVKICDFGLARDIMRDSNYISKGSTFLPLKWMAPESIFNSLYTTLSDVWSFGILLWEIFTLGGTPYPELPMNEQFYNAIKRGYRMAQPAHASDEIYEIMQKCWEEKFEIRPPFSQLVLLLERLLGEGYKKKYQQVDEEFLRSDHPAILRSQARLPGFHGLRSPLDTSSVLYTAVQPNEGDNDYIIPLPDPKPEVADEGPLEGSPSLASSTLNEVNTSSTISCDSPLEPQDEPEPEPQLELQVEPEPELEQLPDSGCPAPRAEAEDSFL
Sequence of KIT V559D, V654A (P10721 26-976 V559D/V654A): as the sequence (P10721 26-976 L576P) above, with V534D, P551L, V629A counted along it
Sequence of KIT V559D (P10721 26-976 V559D): as the sequence (P10721 26-976 L576P) above, with V534D, P551L counted along it
Sequence of KIT D816V (P10721 26-976 D816V): as the sequence (P10721 26-976 L576P) above, with P551L, D791V counted along it
T15 sequence (Q13523 whole entry): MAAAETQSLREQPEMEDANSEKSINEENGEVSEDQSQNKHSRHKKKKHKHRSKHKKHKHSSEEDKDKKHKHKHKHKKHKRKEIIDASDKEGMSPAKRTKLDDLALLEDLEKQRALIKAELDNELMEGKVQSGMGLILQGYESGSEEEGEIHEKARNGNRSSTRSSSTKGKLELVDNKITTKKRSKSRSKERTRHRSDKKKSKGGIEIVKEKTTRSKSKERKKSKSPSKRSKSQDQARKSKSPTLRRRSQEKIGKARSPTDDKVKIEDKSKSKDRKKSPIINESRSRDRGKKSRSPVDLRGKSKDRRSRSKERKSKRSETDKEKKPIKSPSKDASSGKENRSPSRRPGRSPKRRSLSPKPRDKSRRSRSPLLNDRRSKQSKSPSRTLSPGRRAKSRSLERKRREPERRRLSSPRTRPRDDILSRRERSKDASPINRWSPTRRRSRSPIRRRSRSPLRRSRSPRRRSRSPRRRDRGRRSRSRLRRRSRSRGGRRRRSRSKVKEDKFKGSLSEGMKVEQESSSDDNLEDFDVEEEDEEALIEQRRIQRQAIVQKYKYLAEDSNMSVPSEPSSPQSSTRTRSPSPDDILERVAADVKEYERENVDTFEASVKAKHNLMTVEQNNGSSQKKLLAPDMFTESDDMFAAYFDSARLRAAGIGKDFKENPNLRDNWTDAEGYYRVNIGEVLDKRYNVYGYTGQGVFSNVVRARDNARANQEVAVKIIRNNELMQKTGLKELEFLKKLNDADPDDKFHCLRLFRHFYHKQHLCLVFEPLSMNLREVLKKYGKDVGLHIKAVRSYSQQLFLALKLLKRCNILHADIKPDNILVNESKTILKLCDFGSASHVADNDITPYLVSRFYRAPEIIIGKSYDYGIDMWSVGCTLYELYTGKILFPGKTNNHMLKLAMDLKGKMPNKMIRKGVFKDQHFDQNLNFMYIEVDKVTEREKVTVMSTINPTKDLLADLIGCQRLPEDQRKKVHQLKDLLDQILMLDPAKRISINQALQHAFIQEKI
Sequence of KIT (P10721 26-976): as the sequence (P10721 26-976 L576P) above, with P551L counted along it
Sequence of GSK3β (P49841 whole entry, species assumed): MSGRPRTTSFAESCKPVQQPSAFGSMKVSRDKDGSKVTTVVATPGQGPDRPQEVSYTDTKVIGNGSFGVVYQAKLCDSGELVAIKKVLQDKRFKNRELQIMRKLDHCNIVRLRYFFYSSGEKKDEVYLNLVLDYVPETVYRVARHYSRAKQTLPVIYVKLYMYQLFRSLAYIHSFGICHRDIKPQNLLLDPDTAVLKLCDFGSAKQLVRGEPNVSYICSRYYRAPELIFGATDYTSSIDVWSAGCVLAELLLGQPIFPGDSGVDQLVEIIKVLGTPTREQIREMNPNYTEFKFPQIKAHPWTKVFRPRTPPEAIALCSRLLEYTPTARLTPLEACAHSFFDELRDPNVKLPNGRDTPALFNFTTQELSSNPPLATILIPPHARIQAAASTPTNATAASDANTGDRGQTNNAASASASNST

C[C@H]1C/C=C\C(=O)[C@@H](O)[C@@H](O)CCCc2cc(O)cc(O)c2C(=O)O1 [1afh]
number of kinases outside of the set of 46 predicted kinases showing significant inhibition (STK36 and PRKD2) [1]: two | number of kinases out of 31 with more than 50% residual activity [1]: 11 | remaining activity at 1 µM [2, 30]: < 10% | remaining activity at 1 µM [3]: < 10% | remaining activity at 1 µM [4]: < 10% | remaining activity at 1 µM [5]: < 10% | remaining activity at 1 µM [6]: < 10% | remaining activity at 1 µM [7]: < 10% | remaining activity at 1 µM [8]: < 10% | remaining activity at 1 µM [9]: < 10% | remaining activity at 1 µM [10]: < 10% | remaining activity at 1 µM [11, 30]: < 10% | remaining activity at 1 µM [12]: < 10% | remaining activity at 1 µM [13]: < 10% | inhibition [14]: not inhibited | inhibition [15]: not inhibited | inhibition [16]: not inhibited | inhibition [17]: not inhibited | inhibition [18]: not inhibited | inhibition [19]: not inhibited | activity against mutant compared with wild type [20]: more active than against the wild type | sensitivity of mutant to the inhibitors [21]: remained equally sensitive | sensitivity of mutant to the inhibitors [22]: remained equally sensitive | activity against mutant [23]: retained their activity | activity against mutant [24]: retained their activity | activity against mutant [25]: retained their activity | activity against dual mutation [26]: not active | activity against dual mutation [27]: not active

O=C1OCC/C=C\C(=O)[C@@H](O)[C@@H](O)[C@H](O)COc2cc(O)cc(O)c21 [1bgi]
number of kinases outside of the set of 46 predicted kinases showing significant inhibition (STK36 and PRKD2) [1]: two | number of kinases out of 31 with more than 50% residual activity [1]: 19 | activity compared to 1afh ([2]; 1 μM): ten times less active | remaining activity at 1 µM [28]: 1% | activity compared to 1afh ([11]; 1 μM): ten times less active | activity against mutant compared with wild type [20]: more active than against the wild type | sensitivity of mutant to the inhibitors [21]: remained equally sensitive | sensitivity of mutant to the inhibitors [22]: remained equally sensitive | activity against mutant [23]: retained their activity | activity against mutant [24]: retained their activity | activity against mutant [25]: retained their activity | activity against dual mutation [26]: not active | activity against dual mutation [27]: not active

CCOc1cc2ncc(C#N)c(Nc3ccc(F)c(Cl)c3)c2cc1NC(=O)/C=C/CN(C)C [EKB-569]
safety in phase I clinical trial [29]: safe

— patent publication US20130053434A1, “IRREVERSIBLE INHIBITORS USEFUL FOR THE TREATMENT OF KINASE-RELATED PATHOLOGIES” (CENTRE NATIONAL DE LA RECHERCHE SCIENTIFIQUE, priority 2009, published 2013)
